Data set [1] in a line: method code SF-AS, from PMID: 6889867. Conditions: for logD: pH 7.4.
Data set [2] can be described thus: method code SF, from PMID: 6889867. Conditions: pH 7.4.

On to `COc1cc(Cc2cnc(N)nc2N)cc(OC)c1C#N`, for which the logD in data set [1] was 1.2. `COc1cc(Cc2cnc(N)nc2N)ccc1C`: in data set [1], the logD turned out to be 1.95.

For the compound `COc1cc(Cc2cnc(N)nc2N)cc(Cl)c1OC`, in data set [1], the logD amounted to 1.73.

In turn, `COc1ccc(Cc2cnc(N)nc2N)c(OC)n1` showed a logD in data set [1] of 1.83. For the compound `COc1cc(Cc2cnc(N)nc2N)cc(O)c1O`, the logP in data set [1] is -0.31. Regarding `Cc1c(N(C)C)cc(Cc2cnc(N)nc2N)cc1N(C)C`, the logP in data set [1] was determined as 2.06.

With `COc1cc(OC)c(OC)cc1Cc1cnc(N)nc1N`, the lipophilicity (logP) in data set [1] was found to be 1.17. In turn, `Nc1ncc(Cc2ccc3c(c2)OCO3)c(N)n1` displayed a logD in data set [1] of 1.3. Compound `COc1cc(Cc2cnc(N)nc2N)cc(OC)c1SC` came in with a logP in data set [1] of 1.54. Same read-out and setting: with `COc1cccc(Cc2cnc(N)nc2N)c1` the figure was 1.54; with `Nc1ccc(Cc2cnc(N)nc2N)cc1`, 0.22. On to `CCOc1cc(Cc2cnc(N)nc2N)cc(OCC)c1C(C)=O`, for which, in data set [1], the logD worked out at 1.85. In turn, `CNc1cc(Cc2cnc(N)nc2N)cc(N(C)C)c1OC` had a logD in data set [1] of 1.56. In turn, `COc1cc(Cc2cnc(N)nc2N)cc(I)c1OC` yielded a logD in data set [1] of 2.14.

`COc1cc(Cc2cnc(N)nc2N)cc(OC)c1C(=O)N(C)C` gave a logP in data set [1] of -0.21. For the compound `Cc1cc2c(cc1Cc1cnc(N)nc1N)OCO2`, the logD in data set [1] is 1.7. For the compound `COc1c(N(C)C)cc(Cc2cnc(N)nc2N)cc1N(C)C`, in data set [1], the logD amounted to 1.86. `COc1cc(Cc2cnc(N)nc2N)cc(OC)c1C(C)=O` yielded a logD in data set [1] of 0.91. Regarding `CCOC(=O)c1c(OCC)cc(Cc2cnc(N)nc2N)cc1OCC`, in data set [1], the logD is 2.09. `CCSc1c(OC)cc(Cc2cnc(N)nc2N)cc1OC` displayed a logP in data set [1] of 1.79.

Turning to `CN(C)c1cc(Cc2cnc(N)nc2N)cc(N(C)C)c1`, the logP in data set [1] came out at 1.6. For `C=CCc1c(OCC)cc(Cc2cnc(N)nc2N)cc1OCC`, the logD in data set [1] is 2.89.

In data set [1], `COc1cc(Cc2cnc(N)nc2N)cc(OC)c1I` came in with a logD of 2.21. In turn, `COc1cc(Cc2cnc(N)nc2N)cc(OC)c1-n1cccc1` had a logP in data set [1] of 1.78.

With `Nc1ncc(Cc2cc(Cl)c(Cl)cc2Cl)c(N)n1`, the logD in data set [1] turned out to be 3.6.

For the compound `COc1c(Cl)cc(Cc2cnc(N)nc2N)cc1Cl`, the logD in data set [2] came out at 2.59.

In data set [1], `CCOc1cc(Cc2cnc(N)nc2N)cc(OCC)c1C(=O)CS(C)(=O)=O` registered a logP of 0.79.

On to `CCOc1c(OC)cc(Cc2cnc(N)nc2N)cc1OC`, for which, in data set [1], the log partition coefficient (logP) is 1.34. As to `COc1cc(Cc2cnc(N)nc2N)cc(OC)c1C(C)C`, the logD in data set [1] came to 3.18. For the compound `COc1cc(OC)c(Cl)c(Cc2cnc(N)nc2N)c1Cl`, in data set [1], the logD was determined as 2.32. `Nc1ncc(Cc2cc3c(cc2Br)OCO3)c(N)n1`: the logD in data set [1] is 2.3. The logD values of the last two compounds are within 0.2 log units of each other. `COCCOc1c(OC)cc(Cc2cnc(N)nc2N)cc1OC` gave a logP in data set [1] of 0.56.

In the case of `Nc1ncc(Cc2cc(Cl)c(Cl)c(Cl)c2)c(N)n1`, the logD in data set [1] was 3.45.

`CNc1cc(Cc2cnc(N)nc2N)cc(NC)c1`: in data set [1], the logP was determined as 0.44. In data set [1], `COc1cc(Cc2cnc(N)nc2N)cc(OCc2ccccc2)c1OCc1ccccc1` showed a logD of 3.9.

`COc1cc(Cc2cnc(N)nc2N)cc(OCc2ccccc2)c1OC` registered a logP in data set [1] of 2.37. For `CCOc1cc(Cc2cnc(N)nc2N)cc(OCC)c1C(C)(C)O`, in data set [1], the logD was found to be 2.3. `COc1cc(Cc2cnc(N)nc2N)cc(OC)c1Cl` gave a logP in data set [1] of 1.87. In the case of `O=C1CN=C(c2ccccc2F)c2cc(I)ccc2N1CC(O)CO` (centres undefined), in data set [1], the logD amounted to 1.81. Consider `COc1cc(Cc2cnc(N)nc2N)cc(OC)c1N`, for which the logD in data set [1] worked out at 0.6.

With `COCc1c(OC)cc(Cc2cnc(N)nc2N)cc1OC`, the logP in data set [1] came out at 1.19.

The compound `COc1cc(Cc2cnc(N)nc2N)ccc1O` showed a logP in data set [1] of 0.64. `COc1cc(Cc2cnc(N)nc2N)ccc1SC` yielded a logD in data set [1] of 1.73. As for `CCOC(=O)c1c(OC)cc(Cc2cnc(N)nc2N)cc1OC`, the logP in data set [1] came to 1.25. In data set [1], `CCOc1cc(Cc2cnc(N)nc2N)cc(OCC)c1N` gave a logD of 1.5. With `COc1cc(C)c(Cc2cnc(N)nc2N)cc1OC`, the logP in data set [1] amounted to 1.23. On the same count and under the same terms, with `COc1cc(Cc2cnc(N)nc2N)ccc1OCc1ccccc1` the figure was 2.66. In data set [1], `COc1ccc(Cc2cnc(N)nc2N)cc1OC` displayed a logP of 0.97. Take `COC(=O)c1c(OC)cc(Cc2cnc(N)nc2N)cc1OC`: the logD in data set [1] came out at 0.76.

In data set [1], `COC(=O)COc1c(OC)cc(Cc2cnc(N)nc2N)cc1OC` yielded a logP of 0.55. In turn, `COc1ccc(Cc2cnc(N)nc2N)cc1OCc1ccccc1` had a logP in data set [1] of 2.44. Take `COc1ccc(Cc2cnc(N)nc2N)cc1O`: the logD in data set [1] was 0.55. The compound `COc1cncc(OC)c1Cc1cnc(N)nc1N` showed a logD in data set [1] of 1.48.

In the case of `COc1c(O)cc(Cc2cnc(N)nc2N)cc1O`, the log partition coefficient (logP) in data set [1] was -0.04. For the compound `COc1cc(Cc2cnc(N)nc2N)cc(OC)c1OCC#N`, the logP in data set [1] worked out at 0.72. `C=C(C)c1c(OC)cc(Cc2cnc(N)nc2N)cc1OCC`: the logP in data set [1] came to 2.65. Consider `COc1c(OCc2ccccc2)cc(Cc2cnc(N)nc2N)cc1OCc1ccccc1`, for which the logD in data set [1] was found to be 3.7.

The compound `COc1cc(Cc2cnc(N)nc2N)cc(OC)c1C(=O)CS(C)(=O)=O` registered a logP in data set [1] of -0.31. Turning to `COc1cc(Cc2cnc(N)nc2N)c(Cl)c(OC)c1`, in data set [1], the logD was 1.94. With `COc1cc(Cc2cnc(N)nc2N)cc(C)c1OC`, the logP in data set [1] was 1.62. On to `COc1cc(Cc2cnc(N)nc2N)cc2c1OCO2`, for which the logD in data set [1] is 1.19. For `COc1cc(Cc2cnc(N)nc2N)cc(OC)c1OCc1ccccc1`, the logP in data set [1] was 2.46.

Regarding `COc1c(C)cc(Cc2cnc(N)nc2N)cc1C`, the logP in data set [1] was determined as 2.19.

As for `COc1cc(C)c(Cc2cnc(N)nc2N)cc1OCc1ccccc1`, in data set [1], the logP was determined as 2.69. Consider `CNc1cc(Cc2cnc(N)nc2N)cc(N(C)C(C)=O)c1C`, for which the logP in data set [1] came to 0.53. As to `CCOc1cc(Cc2cnc(N)nc2N)cc(OCC)c1-n1cccc1`, in data set [1], the logD was 2.74. On the same count and under the same terms, the same measure for `COc1cc(Cc2cnc(N)nc2N)cc(OC)c1Br`: 1.82. `COc1cc(Cc2cnc(N)nc2N)cc(OC)c1CO` displayed a logP in data set [1] of 0.42.

`COc1cc(Cc2cnc(N)nc2N)cc(OC)c1C(=O)OC(C)C` showed a logP in data set [1] of 1.72.

For `CCOc1cc(Cc2cnc(N)nc2N)cc(OC)c1C(C)(C)O`, the logD in data set [1] is 1.92. In the case of `COc1cc(Cc2cnc(N)nc2N)cc(OC)c1C(C)(C)O`, the logD in data set [1] is 1.3. Consider `COc1cc(Cc2cnc(N)nc2N)cc(OC)c1O`, for which the logP in data set [1] was 0.37. `CCCCOc1cc(Cc2cnc(N)nc2N)c(C)cc1OC` gave a logP in data set [1] of 2.78. In turn, `COc1cc(Cc2cnc(N)nc2N)ccc1C(C)(C)O` returned a logP in data set [1] of 1.38.

The term logD denotes the decadic logarithm of the distribution of all forms, ionised or not, between an organic phase and buffer at a given pH. Low readings indicate lower lipophilicity, high ones higher lipophilicity. The term logP denotes the decadic logarithm of the partition coefficient of the neutral form, usually between octanol and water. Low values mean lower lipophilicity, high ones higher lipophilicity.
